The values that follow come from patent publication US20240277706A1, “METHODS AND COMPOSTITIONS FOR TARGETING PD-L1” (Aligos Therapeutics, Inc., priority 2023, published 2024).

Molecules are shown by their SMILES. A value given as a limit tells only on which side of the number the result lay.

One assay deals with PD-1/PD-L1 (Homo sapiens, UniProt Q9NZQ7). Briefly: PDL1/PD1 Binding Assay. The following applies: PDL1-6×His 0.3 nM, PD1-Fc-Avi-Biotin 2.5 nM, acceptor/donor beads, Envision reader; read-out: PD-1/PD-L1 PPI IC50. The method, then: Compounds to be tested were serially diluted in DMSO, and further diluted in assay buffer (25 mM Hepes pH 7.4, 150 mM NaCl, 0.005% Tween 20, BSA 0.01%). Diluted compounds were added to the wells with final concentration of DMSO at 1%. PDL1-6×His protein was added to the wells, mixed well with compound. The plates were incubated for 30 min at room temperature. PD1-Fc-Avi-Biotin protein was added to the wells. Final concentration of PDL1 and PD1 protein is 0.3 nM and 2.5 nM, respectively. After a binding time of 30 min at room temperature, Anti-6×His Acceptor beads (final concentration 20 ug/ml) were added to the wells, and the incubation continued for 1 h. Streptavidin Donor beads (final concentration 20 ug/mL) were added at reduced light. The plates were sealed with foil and incubated in the dark for additional 1 h or overnight before reading on an Envision reader. The IC50 values were determined by fitting the curves using a four-parameter equation in Graphpad Prism 8.

A further assay addresses T1, PD-1/PD-L1 interaction (Homo sapiens, UniProt Q9NZQ7).
T1 construct: expressed in transfected cells; Jurkat cells (PD-1 and NFAT-luciferase)
Kind of assay: PD-1/PD-L1 NFAT Reporter Assay (Jurkat/CHO co-culture). It is filed as cell-based. Conditions: Jurkat cells overexpressing PD-1 with NFAT luciferase, co-culture with PD-L1 expressing CHO cells, 6 hrs at 37° C. On the procedure: Blocking the PD-1/PD-L1 interaction will release the inhibitory signal and results in TCR signaling and NFAT-mediated luciferase activity.
CHO cells expressing surface-bound anti-CD3 antibodies and PD-L1 were first seeded overnight and treated with the compounds. Jurkat cells overexpressing PD-1 and a luciferase construct under NFAT promoter were then immediately seeded on the monolayer of CHO cells. The co-culture was then incubated for 6 hrs at 37° C. Luciferase activity was assessed by adding the ONE-Glo reagent and measuring luminescence with a plate reader. EC50 values were determined from the fit of the dose-response curves.

The EC50 is the concentration at which the effect is half-maximal.

T1 sequence (Q9NZQ7 19-290): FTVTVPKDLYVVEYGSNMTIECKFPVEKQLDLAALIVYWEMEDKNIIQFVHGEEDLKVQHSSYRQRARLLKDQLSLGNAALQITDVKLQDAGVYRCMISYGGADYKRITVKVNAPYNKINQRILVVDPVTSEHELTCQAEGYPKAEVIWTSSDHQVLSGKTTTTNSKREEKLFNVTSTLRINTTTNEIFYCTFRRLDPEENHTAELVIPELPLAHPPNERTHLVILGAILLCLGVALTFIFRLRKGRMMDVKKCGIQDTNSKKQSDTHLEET
Sequence of PD-1/PD-L1 (Q9NZQ7 19-238 limits assumed): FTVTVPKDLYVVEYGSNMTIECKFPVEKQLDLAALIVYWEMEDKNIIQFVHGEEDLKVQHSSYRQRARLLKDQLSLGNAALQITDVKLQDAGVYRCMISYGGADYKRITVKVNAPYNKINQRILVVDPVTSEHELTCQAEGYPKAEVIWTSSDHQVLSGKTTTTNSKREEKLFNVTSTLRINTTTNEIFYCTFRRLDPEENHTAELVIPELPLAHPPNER

With `COc1nc(-c2cccc(-c3cccc(NC(=O)c4ccnn(C)c4=O)c3Cl)c2Cl)cnc1CN1CCC(C(=O)O)CC1` [Compound C-104], the IC50 at PD-1/PD-L1 was no more than 10 nM. For the same compound, the EC50 at PD-1/PD-L1 interaction was 10 to 100 nM.
Take `COc1nc(-c2cccc(-c3cccc(NC(=O)c4ccnn(C)c4=O)c3Cl)c2Cl)ccc1CN1CCC(C(=O)O)CC1` [Compound C-43]: the IC50 at PD-1/PD-L1 is no more than 10 nM. Also, the EC50 at PD-1/PD-L1 interaction was 10 to 100 nM.
As to `CCOC(=O)C1CCN(Cc2ccc(-c3cccc(-c4cccc(NC(=O)c5ccnn(C)c5=O)c4Cl)c3Cl)nc2OC)CC1` [Compound C-51], the IC50 at PD-1/PD-L1 was no more than 10 nM. At PD-1/PD-L1 interaction, the “Jurkat NFAT EC50” value is “n.r”.
As to `COc1nc(-c2cccc(-c3cccc(NC(=O)c4ccnn(C)c4=O)c3Cl)c2Cl)ccc1CN1CC2CCC(C1)C2C(=O)O` (stereo not drawn) [Compound C-99], the EC50 on PD-1/PD-L1 interaction was 100 to 1000 nM.
In the case of `COc1nc(-c2cccc(-c3cccc(NC(=O)c4ccnn(C)c4=O)c3Cl)c2Cl)ccc1CN1CCC(C)(C(=O)O)CC1` [Compound C-96], on PD-1/PD-L1, the IC50 is no more than 10 nM. The same compound displayed an EC50 on PD-1/PD-L1 interaction of 10 to 100 nM.
The like results for `COc1nc(-c2cccc(-c3cccc(NC(=O)c4ccnn(C)c4=O)c3Cl)c2Cl)ccc1CN1CCC(c2nnn[nH]2)CC1` [Compound C-95] were, in that order, no more than 10 nM and 10 to 100 nM.
The like results for `COc1nc(-c2cccc(-c3cccc(NC(=O)c4ccnn(C)c4=O)c3Cl)c2Cl)ccc1CN1C[C@@H]2[C@H](C1)[C@H]2C(=O)O` [Compound C-100] were, in that order, no more than 10 nM and 10 to 100 nM.
Regarding `COc1nc(-c2cccc(-c3cccc(NC(=O)c4ccnn(C)c4=O)c3Cl)c2Cl)ccc1CN1CC2CC(C1)C2C(=O)O` (stereo not drawn) [Compound C-102], at PD-1/PD-L1, the IC50 was no more than 10 nM. The EC50 on PD-1/PD-L1 interaction was 10 to 100 nM.
The corresponding values for `COc1nc(-c2cccc(-c3cccc(NC(=O)c4ccnn(C)c4=O)c3C)c2Cl)ccc1CN1CCC(C(=O)O)CC1` [Compound C-103] are no more than 10 nM and 10 to 100 nM.
The like results for `COc1nc(-c2cccc(-c3cccc(NC(=O)c4ccnn(C)c4=O)c3Cl)c2Cl)ccc1CN1CCC(OC)(C(=O)O)CC1` [Compound C-98] were, in that order, no more than 10 nM and 10 to 100 nM.
With `COc1nc(-c2cccc(-c3cccc(NC(=O)c4ccnn(C)c4=O)c3Cl)c2Cl)ccc1CN1CCC(F)(C(=O)O)CC1` [Compound C-97], the IC50 on PD-1/PD-L1 was no more than 10 nM. On PD-1/PD-L1 interaction, this compound returned an EC50 of 10 to 100 nM.
The like results for `COc1nc(-c2cccc(-c3cccc(NC(=O)c4ccnn(C)c4=O)c3Cl)c2Cl)ccc1CN1CC(c2nnn[nH]2)C1` [Compound C-26] were, in that order, no more than 10 nM and 10 to 100 nM.
The corresponding values for `CCOC(=O)C1CCN(Cc2ncc(-c3cccc(-c4cccc(NC(=O)c5ccnn(C)c5=O)c4Cl)c3Cl)nc2OC)CC1` [Compound C-107] are no more than 10 nM and 10 to 100 nM.
The compound `COc1nc(-c2cccc(-c3cccc(NC(=O)c4ccnn(C)c4=O)c3Cl)c2Cl)ccc1CN1CCC(O)(C(=O)O)CC1` [Compound C-106] showed an EC50 at PD-1/PD-L1 interaction of 10 to 100 nM.
With `COc1nc(-c2cccc(-c3cccc(NC(=O)c4ccnn(C)c4=O)c3Cl)c2Cl)ccc1CN1CCC2(C(=O)O)CC2C1` (stereo not drawn) [Compound C-101], the IC50 at PD-1/PD-L1 was no more than 10 nM. At PD-1/PD-L1 interaction, this compound had an EC50 of 10 to 100 nM.
The corresponding values for `COc1nc(-c2cccc(-c3cccc(NC(=O)c4ccnn(C)c4=O)c3C)c2Cl)cnc1CN1CCC(C(=O)O)CC1` [Compound C-105] are no more than 10 nM and 10 to 100 nM.
